This test relates to HBV. As to the kind of experiment: HBV-DNA Antiviral Assay Using HepG2.117 Cells (intracellular HBV DNA by qPCR). Type of test: cell-based, hepatitis B virus (genotype D). Conditions: Hepatitis B virus, HepG2.117. How it is done: The following assay procedure describes the HBV antiviral assay, using HepG2.117 cells, which carry a stably integrated genotype D HBV genome under the control of a Tet-off promoter, and intracellular HBV DNA quantification as endpoint. Cell viability is assessed in parallel by measuring the intracellular ATP content using ATPlite (Perkin Elmer).
On day 0, HepG2.117 cells (which are maintained in routine cell culture with doxycycline present in the medium at a final concentration of 1 μg/mL) were seeded in 96-well plates (white with clear bottom) at a density of 2.0×10^4 cells/well (0.1 mL/well) in medium without doxycycline to induce pgRNA transcription and subsequent formation of HBV particles. The cells were incubated at 37° C. and 5% CO2.
On day 1, medium was removed from each well, the test articles were diluted in culture medium without doxcycyline and 100 μL was added to cell culture wells (9 concentrations, 4-fold dilution). For each plate, 6 untreated (merely DMSO) wells were included. The final concentration of DMSO in the culture medium was 2%. Each plate was prepared in duplicate (one for HBV DNA extraction, one for ATPlite measurement). The cells were incubated at 37° C. and 5% CO2 for 3 days.
On day 4, cell viability was assessed using ATPlite and cell lysates were prepared for HBV DNA extraction and subsequent quantification by qPCR.
Medium was removed from each well and 100 μL of 0.33% NP-40 in H2O was added to each well. Plates were sealed, incubated at 4° C. for 5 mins, vortexed extensively and centrifuged briefly. Next, 35 μL of lysate was added to 65 μL QuickExtract DNA Extraction Solution (Epicentre) in a PCR plate for each well. PCR plate was incubated at 65° C. for 6 mins, 98° C. for 2 mins and finally cooled to 4° C. HBV DNA was then quantified by qPCR with HBV-specific primers and probes as specified in Table 3 using the Bio-Rad SSOAdvanced Universal Probes Supermix on a CFX96 machine (Bio-Rad). The PCR cycle program consisted of 95° C. for 3 mins, followed by 40 cycles at 95° C. for 10 sec and 60° C. for 30 sec.
A DNA standard was prepared by dilution of an IDT gBlock corresponding to the amplicon with concentrations ranging from 10^2 to 10^8 copies/input (i.e. per 4 μL) and used to generate a standard curve by plotting Cq values vs. HBV DNA standard concentration. The quantity of HBV DNA in each sample was determined by interpolating from the standard curve.
Cell viability was calculated as follows: % Cell viability=(luminescence value of test sample)/(average luminescence value of 2% DMSO control)×100%. HBV DNA inhibition was calculated as follows: 100−(HBV DNA copy number of test sample)/(average HBV DNA copy number of 2% DMSO control)×100%. No normalization to entecavir was required due to the excellent dynamic window of this assay. The CC50, EC50 and EC90 values were determined by dose-response curves fitted by GraphPad Prism using “log (agonist) vs. response—Variable slope”.
(In general: Quantitative PCR measures a nucleic acid by following its amplification.)

Experimental findings from patent US11591341B2 (ALIGOS THERAPEUTICS, INC., priority 2019, dated 2023) are described below.

The structures appear in SMILES notation. Some results are limits rather than exact numbers.

By EC50 is commonly meant the concentration that produces a half-maximal response. A low value points to greater potency. As to `COc1ccc(-n2c(C(=O)NCc3ccccc3)c3n(c2=O)CCN(C(=O)c2ccc(Cl)c(Cl)c2)C3)cc1Cl` [Example 50, N-benzyl-2-(3-chloro-4-methoxy-phenyl)-7-(3,4-dichlorobenzoyl)-3-oxo-6,8-dihydro-5H-imidazo[1,5-a]pyrazine-1-carboxamide], the EC50 is over 5000 nM.

As for `O=C(NCc1ccccc1)c1c2n(c(=O)n1-c1ccc(OC3CC3)cc1)CCN(C(=O)c1cc(Cl)c(Br)cc1F)C2` [Example 446, N-benzyl-7-(4-bromo-5-chloro-2-fluoro-benzoyl)-2-[4-(cyclopropoxy)phenyl]-3-oxo-6,8-dihydro-5H-imidazo[1,5-a]pyrazine-1-carboxamide], the EC50 is over 5000 nM.

Consider `COc1cc(CNC(=O)c2c3n(c(=O)n2-c2ccc(OC(C)C)cc2)CCN(C(=O)c2ccc(Br)c(Cl)c2)C3)ccc1C#N` [Example 211, 7-(4-bromo-3-chloro-benzoyl)-N-[(4-cyano-3-methoxy-phenyl)methyl]-2-(4-isopropxoyphenyl)-3-oxo-6,8-dihydro-5H-imidazo[1,5-a]pyrazine-1-carboxamide], for which the EC50 was in the range of 500 to 5000 nM.

Regarding `N#Cc1ccc(CNC(=O)c2c3n(c(=O)n2-c2ccc(OC4CC4)cc2)CCN(C(=O)c2ccc(Br)c(Cl)c2)C3)c(F)c1` [Example 307], the EC50 fell in the range of 500 to 5000 nM.

`COc1ccc(-n2c(C(=O)NC(C)C3CC3)c3n(c2=O)CCN(C(=O)c2ccc(Cl)c(Cl)c2)C3)cc1` (racemic) [Example 94, 7-(3,4-dichlorobenzoyl)-2-(4-methoxyphenyl)-3-oxo-N-[rac-(1S)-1-cyclopropylethyl]-6,8-dihydro-5H-imidazo[1,5-a]pyrazine-1-carboxamide]: the concentration giving a half-maximal response (EC50) is over 5000 nM.

`O=C(NCc1ccccc1-n1cncn1)c1c2n(c(=O)n1-c1ccc(OCC(F)(F)F)cc1)CCN(C(=O)c1ccc(Br)c(Cl)c1)C2` [Example 304, 7-(4-bromo-3-chloro-benzoyl)-3-oxo-N-[[2-(1,2,4-triazol-1-yl)phenyl]methyl]-2-[4-(2,2,2-trifluoroethoxy)phenyl]-6,8-dihydro-5H-imidazo[1,5-a]pyrazine-1-carboxamide]: the half-maximal effective concentration (EC50) was under 100 nM.

The compound `COc1ccc(-n2c(C(=O)NCC(C)C)c3n(c2=O)CCN(C(=O)c2ccc(Cl)c(Cl)c2)C3)cc1` [Example 58, 7-(3,4-dichlorobenzoyl)-N-isobutyl-2-(4-methoxyphenyl)-3-oxo-6,8-dihydro-5H-imidazo[1,5-a]pyrazine-1-carboxamide] came in with an EC50 of over 5000 nM.

The compound `COc1ccc(-n2c(C(=O)NCc3ccc(OC)cc3C3CC3)c3n(c2=O)CCN(C(=O)c2ccc(Br)c(Cl)c2)C3)cc1` [Example 210, 7-(4-bromo-3-chloro-benozyl)-N-[(2-cyclopropyl-4-methoxy-phenyl)methyl]-2-(4-methoxyphenyl)-3-oxo-6,8-dihydro-5H-imidazo[1,5-a]pyrazine-1-carboxamide] displayed an EC50 of 100 to 500 nM.

As to `O=C(c1ccc(Br)c(Cl)c1)N1CCn2c(c3n(c2=O)C[C@@H](F)CN(Cc2ccccc2)C3=O)C1` (stereo in doubt) [Example 201, rac-(11S)-13-benzyl-4-(4-bromo-3-chloro-benzoyl)-11-fluoro-4,7,9,13-tetrazatricyclo[7.5.0.0^2,7]tetradec-1-ene-8,14-dione], the EC50 is 100 to 500 nM.

Compound `C[C@H](NC(=O)c1c2n(c(=O)n1-c1ccc(OC3CCC3)cc1)CCN(C(=O)c1ccc(Br)c(Cl)c1)C2)c1ccccc1` (stereo in doubt) [Example 136, 7-(4-bromo-3-chloro-benzoyl)-2-[4-(cyclobutoxy)phenyl]-3-oxo-N-[rac-(1S)-1-phenylethyl]-6,8-dihydro-5H-imidazo[1,5-a]pyrazine-1-carboxamide] displayed a 50% effective concentration (EC50) of 100 to 500 nM.

Consider `COc1ccc(-n2c(C(=O)NCc3cnccn3)c3n(c2=O)CCN(C(=O)c2ccc(Br)c(Cl)c2)C3)cc1` [Example 171, 7-(4-bromo-3-chloro-benzoyl)-2-(4-methoxyphenyl)-3-oxo-N-(pyrazin-2-ylmethyl)-6,8-dihydro-5H-imidazo[1,5-a]pyrazine-1-carboxamide], for which the EC50 was over 5000 nM.

`CC(C)(Oc1ccc(CNC(=O)c2c3n(c(=O)n2-c2ccc(OC4CC4)cc2)CCN(C(=O)c2ccc(Br)c(Cl)c2)C3)c(F)c1)C(N)=O` [Example 365, N-[[4-(2-amino-1,1-dimethyl-2-oxo-ethoxy)-2-fluoro-phenyl]methyl]-7-(4-bromo-3-chloro-benzoyl)-2-[4-(cyclopropoxy)phenyl]-3-oxo-6,8-dihydro-5H-imidazo[1,5-a]pyrazine-1-carboxamide] gave a half-maximal effective concentration (EC50) of under 100 nM.

Consider `C[C@@H](NC(=O)c1c2n(c(=O)n1-c1ccc(OC3CC3)cc1)CCN(C(=O)c1ccc(Br)c(Cl)c1)C2)c1ccc(OCC(N)=O)cc1F` (stereo in doubt) [Example 316, 7-(4-bromo-3-chloro-benzoyl)-2-[4-(cyclopropoxy)phenyl]-3-oxo-N-[rac-(1S)-1-[4-(2-amino-2-oxo-ethoxy)-2-fluoro-phenyl]ethyl]-6,8-dihydro-5H-imidazo[1,5-a]pyrazine-1-carboxamide], for which the half-maximal effective concentration (EC50) is under 100 nM.

`C[C@@H](NC(=O)c1c2n(c(=O)n1-c1ccc(OCC(F)(F)F)cc1)CCN(C(=O)c1ccc(Br)c(Cl)c1)C2)c1ccc(OCC#N)cc1F` (stereo in doubt) [Example 344, 7-(4-bromo-3-chloro-benzoyl)-3-oxo-N-[rac-(1R)-1-[4-(cyanomethoxy)-2-fluoro-phenyl]ethyl]-2-[4-(2,2,2-trifluoroethoxy)phenyl]-6,8-dihydro-5H-imidazo[1,5-a]pyrazine-1-carboxamide] yielded a half-maximal effective concentration (EC50) of 500 to 5000 nM.

In the case of `COc1ccc(-n2c(C(=O)NCc3ccc4[nH]c(=O)[nH]c4c3)c3n(c2=O)CCN(C(=O)c2ccc(Cl)c(Cl)c2)C3)cc1` [Example 93, 7-(3,4-dichlorobenzoyl)-2-(4-methoxyphenyl)-3-oxo-N-[(2-oxo-1,3-dihydrobenzimidazol-5-yl)methyl]-6,8-dihydro-5H-imidazo[1,5-a]pyrazine-1-carboxamide], the 50% effective concentration (EC50) was over 5000 nM.

For `CNC(=O)c1cccc(-n2c(C(=O)NCc3ccccc3)c3n(c2=O)CCN(C(=O)c2ccc(Br)c(Cl)c2)C3)c1` [Example 48, N-benzyl-7-(4-bromo-3-chloro-benzoyl)-2-[3-(methylcarbamoyl)phenyl]-3-oxo-6,8-dihydro-5H-imidazo[1,5-a]pyrazine-1-carboxamide], the EC50 fell in the range of 500 to 5000 nM.

In the case of `O=C(NCc1c(F)cccc1-n1cccn1)c1c2n(c(=O)n1-c1ccc(OC3CC3)cc1)CCN(C(=O)c1ccc(Br)c(Cl)c1)C2` [Example 435, 7-(4-bromo-3-chloro-benzoyl)-2-[4-(cyclopropoxy)phenyl]-N-[(2-fluoro-6-pyrazol-1-yl-phenyl)methyl]-3-oxo-6,8-dihydro-5H-imidazo[1,5-a]pyrazine-1-carboxamide], the EC50 is under 100 nM.

Consider `COc1ccc(-n2c(C(=O)NCc3ccccc3)c3n(c2=O)C[C@H](C)N(C(=O)c2ccc(Br)c(Cl)c2)C3)cc1` (racemic) [Example 199, rac-(6S)-N-benzyl-7-(4-bromo-3-chloro-benzoyl)-2-(4-methoxyphenyl)-6-methyl-3-oxo-6,8-dihydro-5H-imidazo[1,5-a]pyrazine-1-carboxamide], for which the EC50 fell in the range of 100 to 500 nM.

In the case of `C[C@@H](NC(=O)c1c2n(c(=O)n1C)CCN(C(=O)c1ccc(Br)c(Cl)c1)C2)c1ccccc1` (stereo in doubt) [Example 113, 7-(4-bromo-3-chloro-benzoyl)-2-methyl-3-oxo-N-[rac-(1R)-1-phenylethyl]-6,8-dihydro-5H-imidazo[1,5-a]pyrazine-1-carboxamide], the concentration for a half-maximal effect (EC50) was 500 to 5000 nM.

In the case of `COc1ccc(-n2c(C(=O)NCc3ccc(C(F)(F)F)cc3)c3n(c2=O)CCN(C(=O)c2ccc(Br)c(Cl)c2)C3)cc1` [Example 140, 7-(4-bromo-3-chloro-benzoyl)-2-(4-methoxyphenyl)-3-oxo-N-[[4-(trifluoromethyl)phenyl]methyl]-6,8-dihydro-5H-imidazo[1,5-a]pyrazine-1-carboxamide], the concentration giving a half-maximal response (EC50) was 500 to 5000 nM.

`COc1ccc(CNC(=O)c2c3n(c(=O)n2-c2ccc(OC(C)C)cc2)CCN(C(=O)c2ccc(Br)c(Cl)c2)C3)c(OC)c1` [Example 228, 7-(4-bromo-3-chloro-benzoyl)-N-[(2,4-dimethoxypehnyl)methyl]-2-(4-isopropoxyphenyl)-3-oxo-6,8-dihydro-5H-imidazo[1,5-a]pyrazine-1-carboxamide]: the concentration for a half-maximal effect (EC50) fell in the range of 100 to 500 nM.
